Reference: patent publication US9579296B2, “Compositions and methods for transdermal delivery of hormones and other medicinal agents” (Teikoku Pharma USA, Inc., priority 2012, dated 2017)
Like-named read-outs stand apart in the source and are kept apart here.

Protocol: To assay transdermal flux of levonorgestrel and ethinyl estradiol across the skin barrier, traditional Franz diffusion cells were used. Human cadaver skin epidermis was used as the substrate throughout all flux experiments to mimic in vivo conditions.
Prior to beginning the diffusion experiment, human cadaver epidermis was separated from underlying dermal tissue by floating the skin sample on 60° C. water for 2 minutes, followed by gently pealing the epidermis away from the dermal tissue with a spatula. The resulting epidermal tissue is then cut into squares having an approximate size of 2 cm×2 cm. Patch samples were then prepared by die-cutting the patches with a ⅝″ punch and arbor press. The release liner of the punched sample was then removed and the patch sample was placed on top of the epidermis with the drug adhesive layer contacting the stratum corneum. Gentle pressure was applied to the patch sample to achieve good contact between the adhesive layer and the stratum corneum.
Franz diffusion cells were assembled by placing the epidermis-patch samples between the receptor and donor chambers of the diffusion cell and clamping the chambers together with a pinch clamp. The receptor chamber was filled with phosphate buffered saline solution at pH 7.4 with 0.2% (w/w) NaN3 added as a preservative and 2% (w/w) beta-hydroxypropylcylclodextrin added to ensure sink conditions of the receptor fluid throughout the experiment. In addition, a stir bar was added to each receptor chamber. Care was taken to ensure any air bubbles underneath the skin were removed prior to beginning the flux study. The assembled diffusion cells were then placed in a stirring dry bath heater. The receptor chambers were continually stirred throughout the experiment and the temperature maintained at 32° C. Samples were taken at regular intervals over a period seven of days with fresh receptor solution being used to replace the removed sample aliquot. Sample aliquots were analyzed via high performance liquid chromatography (HPLC) with a gradient method using water (with 0.01% (w/w) formic acid) and acetonitrile (with 0.006% (w/w) formic acid) as the mobile phases, an Eclipse Plus C8 column, and ultraviolet (UV) detection at 220 nm. Flux values were calculated from the slopes of cumulative amounts of the drug in the receptor compartment versus time.
(§1) Transdermal delivery systems for administration of levonorgesterel and ethinyl estradiol were prepared and tested as described in Example 1, except that the adhesive polymer matrix contained levulinic acid and/or glyceryl monooleate.
as §1, with “monooleate, and pharmaceutical grade PVP/VA S-630 (sold under the tradename Plasdone S-630 by International Specialty Products located at Wayne, N.J.) was used.” for “monooleate.”
Transdermal flux assays measuring the flux of levonorgestrel were performed as described in Example 1.

SMILES	flux of ethinyl estradiol, result in words (Example 1, Formulations A-I)	flux of levonorgestrel, result in words (Example 1, Formulations A-I)	flux of levonorgestrel, result in words (Example 1, Formulations A-I, listed as Glyceryl monooleate)	flux of ethinyl estradiol, result in words	flux of levonorgestrel, result in words
CCCCCCCC/C=C\CCCCCCCC(=O)OCC(O)CO (stereo not shown) [glyceryl monooleate]	increase the flux of ethinyl estradiol relative to control Formulation A	increase the flux of levonorgestrel relative to control Formulation A	larger increase in the flux of levonorgestrel than levulinic acid	–	–
CCCCCCCCCCCCCC(=O)OC(C)C [isopropyl myristate]	–	–	–	increase the flux of ethinyl estradiol relative to control Formulation A	increase the flux of levonorgestrel relative to control Formulation A
CCCCCCCCCCCCOC(=O)C(C)O (stereo not shown) [lauryl lactate]	–	–	–	–	increase the flux of levonorgestrel relative to control Formulation T
CC(=O)CCC(=O)O [levulinic acid]	–	–	–	increase the flux of ethinyl estradiol relative to control Formulation A	–
